Data as given in patent publication US7388006B2, “Non-steroidal progesting” (Bayer Schering Pharma AG, priority 2002, dated 2008).

Legend:
rat mammary epithelium = assay: MIB-5 immunohistochemistry, proliferation of the mammary epithelium; type: in vivo; conditions: FIG. 2
Procedure: In order to determine the effects of test progestins according to the present invention, in particular compound ((+)-1), in mammary gland differentiation and proliferation, premature female rats (Wistar Han, SPF) are ovariectomized at the age of 21 days, 4 to 6 days before treatment start. The animals are treated for 6 days with standard estrogen (estrone (E1), 70 μg/kg) and the test progestin ((+)-1) (application volume: 0.1 ml/50 g body weight; vehicle: benzylbenzoate/castor oil (1+4 v/v); subcutaneous). Control groups are e.g.: vehicle, estrone without progestin, estradiol together with a known progestin, e.g. R5020 (promegestone). After the 6-day treatment the animals are killed with carbon dioxide.
For the whole mount staining, animals are shaved in the left abdominal inguinal mammary region, which is cut from the body together with the skin. For the histological/immunohistochemical analyses the right abdominal inguinal mammary gland is cut from the body together with the connective-tissue adhered thereto and fixed in 3.7% formalin in PBS (phosphate buffer saline; without Ca^2+/Mg^2+).
For a more detailed evaluation of the proliferation of the mammary epithelium, cells are stained with the proliferation marker MIB-5 as follows (cf. FIG. 2): Mammary glands are fixed in 4% formaldehyde/PBS for 24 h and embedded in paraffm. 4 μm sections are spread on slides, deparaffinized, treated with microwaves for 10 min. in citrate buffer pH 6.0 and rinsed with PBS. Slides are then blocked with 3% H2O2/methanol for 15 min., Blockingkit (Vektor, no. SP-2001) for 10 min. and rat serum (Sigma, no. S-7648) diluted 1:2 in PBS for 30 min to reduce nonspecific staining and rinsed in PBS. Slides are incubated for 1 hour with monoclonal antibody MIB-5 (Dianova, no. Dia-5055), which is specific for the rat Ki-67 antigen (1:200 diluted in PBS/0.2% BSA). […]
In order to characterize a test compound, the percentage of MIB-5 stained mammary epithelium cells is determined. […]

rabbit endometrium = assay: Endometrial transformation in rabbit (Clauberg test, McPhail index); type: in vivo
Procedure: The test is performed in juvenile female rabbits (New Zealand white, 30 to 35 days old; obtained from Schriever, Germany). From days 1 to 4, all rabbits are primed with […] (s.c., 0.5 ml/kg/day) in order to induce proliferation of the endometrium. From days 7 to 10, the test compound is applied orally (p.o., 0.5 ml/kg/day) at doses of 0.001, 0.01 and 0.1 mg/kg/day. A group which receives only vehicle after estradiol priming serves as a negative control. A second group which receives only progesterone in order to induce endometrial differentiation after estradiol priming is used as a positive control. In order to study the progestagenic activity of ((+)-1), which is the most preferred compound according to the present invention, one treatment group-receives only the compound ((+)-1) after estradiol priming.
Autopsy is performed on […]. As a parameter for progestagenic activity, the McPhail index (i.e., the degree of differentiation) is determined by means of light microscopy (scores: 1 to 4; 1=no glandular differentiation, 4=maximal differentiation).

[1] = biological target: T1, glucocorticoid receptor (GR) (Homo sapiens, UniProt P04150); assay: Affinity for the glucocorticoid receptor; type: binding
T1 sequence (P04150 1-777): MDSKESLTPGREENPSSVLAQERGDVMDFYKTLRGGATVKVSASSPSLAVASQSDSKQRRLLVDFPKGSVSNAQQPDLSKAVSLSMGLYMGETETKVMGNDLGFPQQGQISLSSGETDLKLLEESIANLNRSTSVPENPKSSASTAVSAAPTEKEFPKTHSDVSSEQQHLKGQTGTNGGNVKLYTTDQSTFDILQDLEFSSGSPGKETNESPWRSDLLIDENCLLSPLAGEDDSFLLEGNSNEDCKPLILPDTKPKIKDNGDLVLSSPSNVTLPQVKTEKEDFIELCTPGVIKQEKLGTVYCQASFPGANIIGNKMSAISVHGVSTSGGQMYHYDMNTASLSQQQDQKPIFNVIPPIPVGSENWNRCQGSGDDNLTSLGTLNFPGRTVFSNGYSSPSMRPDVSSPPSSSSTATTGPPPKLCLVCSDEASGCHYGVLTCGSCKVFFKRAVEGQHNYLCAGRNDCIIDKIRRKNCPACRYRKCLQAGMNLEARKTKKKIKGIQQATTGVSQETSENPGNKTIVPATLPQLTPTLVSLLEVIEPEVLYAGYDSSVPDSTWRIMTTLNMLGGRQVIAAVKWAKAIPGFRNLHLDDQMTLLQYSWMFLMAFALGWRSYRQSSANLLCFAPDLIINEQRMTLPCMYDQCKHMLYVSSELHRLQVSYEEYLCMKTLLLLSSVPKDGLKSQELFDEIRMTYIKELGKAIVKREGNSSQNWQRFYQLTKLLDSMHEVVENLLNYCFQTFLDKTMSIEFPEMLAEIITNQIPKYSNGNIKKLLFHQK

[2] = tested on: prostate weight and seminal vesicle of orchidectomized rats; assay: Androgenic/anti-androgenic activity in vivo in orchidectomized rats (prostate weight, seminal vesicle); set-up: species or system rat
Description: The absence of androgenic as well as anti-androgenic activity in vivo was confirmed by tests performed with orchidectomized rats (change in prostate weight and in the seminal vesicle).

Which MIB-5 positive cells (rat mammary epithelium; 1 mg/kg/d) does the source give for `O=C1OCc2cc(NC(=O)C(O)(CC3(c4cc(C(F)(F)F)ccc4F)CC3)C(F)(F)F)ccc21` (single isomer, unassigned; (+)) [((+)-1), (+)-5-{2-hydroxy-3-[1-(2-fluoro-5-trifluoromethylphenyl)-cyclopropyl]-2-trifluoromethyl-propionylamino}-phthalide] here?
The MIB-5 positive cells was roughly 12%.

What about the “MIB-5 positive cells, dose dependence in words” value (rat mammary epithelium; increasing concentrations) of the same compound?
Its value is “dose-dependent decrease of MIB-5 positive cells”.

And the “Potency upon subcutaneous versus oral application, in words” value (rabbit endometrium; Clauberg test, rabbit)?
Its value is “identical potency”.

And the “Threshold Value (endometrial transformation)” value (rabbit endometrium; oral (p.o.))?
Its value is 0.001 to 0.01 mg/kg.

And the “Affinity for the glucocorticoid receptor (GR)” value [1]?
Its value is “very high affinity”.

And the “Androgenic and anti-androgenic activity in vivo” value [2]?
Its value is “no androgenic as well as no anti-androgenic activity in vivo”.
